Experiment: wn = mass fraction of the nth substance listed
Conditions: Liquid, Vibrating tube method

CCCC[N+](CCCC)(CCCC)CCCC.[Br-] [tetrabutylammonium bromide] + O
mass density [kg/m3]
Conditions | 283.15 K | 285.15 K | 288.15 K | 291.15 K | 293.15 K | 298.15 K | 303.15 K
100 kPa, w1 = 0.1 | 1008.7 | 1008.3 | 1007.6 | 1006.7 | 1006.2 | 1004.9 | 1003.2
100 kPa, w1 = 0.14 | 1012.9 | 1012.6 | 1011.6 | 1010.9 | 1010 | 1008.4 | 1006.3
100 kPa, w1 = 0.2 | 1019.9 | 1019.3 | 1018.1 | 1017 | 1016.3 | 1014.2 | 1011.9
100 kPa, w1 = 0.3 | – | – | 1029 | 1027.4 | 1026.3 | 1023.7 | 1020.7
100 kPa, w1 = 0.4 | – | – | 1038.5 | 1036.7 | 1035.3 | 1031.9 | 1028.6
1000 kPa, w1 = 0.1 | – | – | 1008 | 1007.1 | 1006.7 | 1005.3 | 1003.7
1000 kPa, w1 = 0.14 | – | – | 1012.1 | 1011.2 | 1010.4 | 1008.7 | 1006.6
1000 kPa, w1 = 0.2 | – | – | 1018.6 | 1017.4 | 1016.7 | 1014.5 | 1012.4
1000 kPa, w1 = 0.3 | – | – | 1029.4 | 1027.7 | 1026.8 | 1024 | 1021.2
1000 kPa, w1 = 0.4 | – | – | 1039 | 1037 | 1035.7 | 1032.3 | 1029.2
2000 kPa, w1 = 0.1 | – | – | 1008.4 | 1007.6 | 1007 | 1005.7 | 1004.1
2000 kPa, w1 = 0.14 | – | – | 1012.5 | 1011.6 | 1010.8 | 1009.1 | 1007
2000 kPa, w1 = 0.2 | – | – | 1019 | 1017.8 | 1017 | 1014.9 | 1012.8
2000 kPa, w1 = 0.3 | – | – | 1029.7 | 1028.1 | 1027.1 | 1024.4 | 1021.6
2000 kPa, w1 = 0.4 | – | – | 1039.4 | 1037.4 | 1036 | 1032.7 | 1029.5
3000 kPa, w1 = 0.1 | – | – | 1008.9 | 1008 | 1007.5 | 1006.1 | 1004.5
3000 kPa, w1 = 0.14 | – | – | 1012.9 | 1012 | 1011.2 | 1009.5 | 1007.4
3000 kPa, w1 = 0.2 | – | – | 1019.4 | 1018.2 | 1017.5 | 1015.3 | 1013.2
3000 kPa, w1 = 0.3 | – | – | 1030.1 | 1028.5 | 1027.5 | 1024.8 | 1022
3000 kPa, w1 = 0.4 | – | – | 1039.7 | 1037.8 | 1036.4 | 1033 | 1029.9
4000 kPa, w1 = 0.1 | – | – | 1009.2 | 1008.4 | 1007.9 | 1006.5 | 1005
4000 kPa, w1 = 0.14 | – | – | 1013.3 | 1012.4 | 1011.6 | 1009.9 | 1007.7
4000 kPa, w1 = 0.2 | – | – | 1019.7 | 1018.6 | 1017.8 | 1015.7 | 1013.6
4000 kPa, w1 = 0.3 | – | – | 1030.4 | 1028.8 | 1027.9 | 1025.1 | 1022.4
4000 kPa, w1 = 0.4 | – | – | 1040.1 | 1038.1 | 1036.8 | 1033.3 | 1030.3
5000 kPa, w1 = 0.1 | – | – | 1009.7 | 1008.7 | 1008.3 | 1006.9 | 1005.4
5000 kPa, w1 = 0.14 | – | – | 1013.7 | 1012.7 | 1012.1 | 1010.3 | 1008.1
5000 kPa, w1 = 0.2 | – | – | 1020.1 | 1018.8 | 1018.2 | 1016.1 | 1014
5000 kPa, w1 = 0.3 | – | – | 1030.7 | 1029.1 | 1028.2 | 1025.5 | 1022.7
5000 kPa, w1 = 0.4 | – | – | 1040.4 | 1038.4 | 1037.1 | 1033.7 | 1030.7
